Measured values: patent US10457916B2, “Method for inducing differentiation of insulin-producing cells” (TOKYO INSTITUTE OF TECHNOLOGY, priority 2014, dated 2019)

Key:
Type in all cases: cell-based, human
[1] = test system: differentiated cells at the end of stage 5; assay: C-peptide secretion in response to glucose and insulin secretagogues (ELISA); conditions: 1 hr, versus 2.5 mM glucose without secretagogues; 30 mM KCl, 100 μM tolbutamide, 2 μM Bay K8644, 0.5 mM IBMX, 250 μM carbachol
Description: (§1) The differentiated cells at the end of stage 5 were initially incubated at 37° C. for 30 min with DMEM (Life Technologies) containing minimal essential medium, 2.5 mM glucose and 1% B27 Supplement Xeno-Free CTS. This initial incubation was regarded as washing. Subsequently, the medium was discarded and then the cells were incubated with DMEM (100 μl per well) containing 2.5 mM glucose at 37° for 1 hr. After collecting the supernatant, the same cells were further cultured for 1 hr in 20 mM glucose-containing DMEM or 2.5 mM glucose-containing DMEM supplemented with various stimulants, e.g., 2 μM (−)-Bay K8644 (Sigma-Aldrich), 100 μM tolbutamide (Wako), 250 μM carbachol (Sigma-Aldrich), 0.5 mM IBMX or 30 mM potassium chloride (KCl) (Wako). The supernatant was collected again and stored at −20° C. until analysis. Finally, the cells were lysed with 0.01% Triton X-100 in PBS containing 1% protease inhibitor cocktail (Nacalai Tesque). Intracellular C-peptide and protein levels were quantitatively determined. C-peptide level was measured using a human C-peptide ELISA kit (ALPCO Diagnostics) according to the manufacturer's instructions. The total protein in cell lysate was quantitatively determined using a Bio-Rad reagent kit (Bio-Rad). The amount of C-peptide was normalized against the corresponding amount of the total protein.

[2] = test system: endocrine progenitor cells; assay: Stage 5 differentiation into endocrine cells, immunocytochemistry; conditions: for proportion of PDX1-positive/CP-negative cells / proportion of CP single-positive cells: end of stage 5; for proportion of CP single-positive cells: added to basal medium with exendin-4 and nicotinamide
Description: (§2) To this medium were added 50 ng/ml exendin-4 (Ex-4; Cell Sciences), 10 mM nicotinamide (NA; Sigma-Aldrich), and/or 100 μM 3-isobutyl-1-methylxanthine (IBMX; phosphodiesterase inhibitor; Wako), and/or 10 μM forskolin (FRKL; adenylate cyclase activator; Wako). The media were changed every two days.

[3] = test system: endocrine progenitor cells; assay: Intracellular C-peptide content of cells differentiated at stage 5 (ELISA); conditions: differentiated cells at the end of stage 5
Description: as §2
as §1, with “The supernatant was collected again and stored at −20° C. until analysis. Finally, the cells were lysed with 0.01% Triton X-100 in PBS containing 1% protease inhibitor cocktail (Nacalai Tesque).” left out, “The amount of C-peptide was normalized against the corresponding amount of the total protein.” left out

[4] = test system: endocrine progenitor cells; assay: Stage 5 differentiation into endocrine cells, quantitative RT-PCR
Description: as §2

PG cells [5] = assay: Stage 3 differentiation into pancreatic progenitor cells, immunocytochemistry
Text: (§3) The medium was changed every two days.

PG cells [6] = assay: Stage 3 differentiation into pancreatic progenitor cells, quantitative RT-PCR; conditions: higher concentrations of NOGGIN at stage 3, versus Nog 100
Text: as §3

[7] = 200 ng/ml NOGGIN in stage-3 media
[8] = 200 ng/ml NOGGIN in stage-3 media with RA, KAAD-cyclopamine, SB431542

## COC(=O)C1=C(C)NC(C)=C([N+](=O)[O-])C1c1ccccc1C(F)(F)F (single isomer, unassigned; (-)) [(−) BAY K8644]
[1]
  increase of C-peptide secretion: approximately 4.9 fold

## C=C[C@@]1(C)CC(=O)[C@]2(O)[C@@]3(C)[C@@H](O)CCC(C)(C)[C@@H]3[C@H](O)[C@H](OC(C)=O)[C@@]2(C)O1 [FRKL, forskolin]
[2]
  proportion of PDX1-positive/CP-negative cells: approximately 27%
  proportion of CP single-positive cells: 5.6-6.4%
[3]
  intracellular C-peptide contents: approximately 62 ng/mg protein

## C[N+](C)(C)CCOC(N)=O [carbachol]
[1]
  increase of C-peptide secretion: approximately 7.0 fold

## [Cl-].[K+] [KCl, potassium chloride]
[1]
  increase of C-peptide secretion: approximately 8.3 fold

## CC(C)Cn1c(=O)n(C)c(=O)c2[nH]cnc21 [IBMX, 3-isobutyl-1-methylxanthine]
[2]
  proportion of PDX1-positive/CP-negative cells: approximately 22%
  proportion of CP single-positive cells: 6.5-6.7%
[4]; IBMX-induced cells versus FRKL-induced cells
  expression levels of β-cell specific genes: relatively higher
[4]; added to basal medium (DMEM/F12, 1% B27, exendin-4 and nicotinamide) at stage 5, versus DMSO
  INS expression: significantly upregulated
[4]; end of stage 5, versus DMSO-induced cells
  expression levels of β-cell maturity genes (PDX1, NKX6.1, MAF-A, ISL-1, UCN3, GCK, IAPP, SLC30A8): remarkably higher
[1]
  increase of C-peptide secretion: approximately 4.9 fold
[3]
  intracellular C-peptide contents: approximately 66 ng/mg protein

## CCCCNC(=O)NS(=O)(=O)c1ccc(C)cc1 [tolbutamide]
[1]
  increase of C-peptide secretion: approximately 3.0 fold

B1: NOGGIN: recombinant human NOGGIN, BMP signaling inhibitor (R&D Systems) (protein, UniProt Q13253 28-232, looked up)
Noggin: QHYLHIRPAPSDNLPLVDLIEHPDPIFDPKEKDLNETLLRSLLGGHYDPGFMATSPPEDRPGGGGGAAGGAEDLAELDQLLRQRPSGAMPSEIKGLEFSEGLAQGKKQRLSKKLRRKLQMWLWSQTFCPVLYAWNDLGSRFWPRYVKVGSCFSKRSCSVPEGMVCKPSKSVHLTVLRWRCQRRGGQRCGWIPIQYPIISECKCSC
[2]; NOGGIN at 200 ng/ml compared to 100 ng/ml at stages 3 and 4
  proportion of EC cells: higher proportion
PG cells [5]; 100 ng/ml NOGGIN at stage 3
  AFP-positive hepatic cells and CDX2-positive intestinal progenitor cells appearing: considerable proportion
PG cells [5]; [7]
  AFP-positive cells in the total DAPI-positive cells: 4%
  CDX2-positive cells in the total DAPI-positive cells: 8%
PG cells [5]; [8]
  PDX1-positive cells co-expressing HNF-6: about 62%
  PDX1-positive cells co-expressing SOX9: about 59%
PG cells [5]; 200-300 ng/ml NOGGIN at stage 3, versus 100 ng/ml
  numbers of AFP-positive hepatic cells and CDX2-positive intestinal progenitor cells: remarkably reduced
PG cells [6]
  expression level of early-stage pancreatic dorsal bud gene HLXB9: remarkably upregulated
  expression levels of PDX-1 and posterior foregut genes HNF6 and NKX6.1: remarkably upregulated
  gene expression levels of CDX2 and AFP: remarkably reduced
